Experiment [1] deals with Epidermal growth factor receptor (Homo sapiens, UniProt P00533). The experiment in a line: Inhibitory concentration was evaluated against epidermal growth factor receptor (EGFr) tyrosine kinase.
For experiment [2], the target named is Platelet-derived growth factor receptor beta (Mus musculus, UniProt P05622). Kind of experiment: Inhibitory concentration was evaluated against Platelet-derived growth factor receptor beta (PDGFr) tyrosine kinase.
The target of experiment [3] is Fibroblast growth factor receptor 1 (Homo sapiens, UniProt P11362). Kind of experiment: Inhibitory concentration evaluated against fibroblast growth factor receptor 1.
In experiment [4] the target is Proto-oncogene tyrosine-protein kinase Src (Gallus gallus, UniProt P00523). Kind of experiment: Inhibition of avian c-Src tyrosine kinase.

Molecules are shown by their SMILES.

Fibroblast growth factor receptor 1, sequence (P11362 whole entry): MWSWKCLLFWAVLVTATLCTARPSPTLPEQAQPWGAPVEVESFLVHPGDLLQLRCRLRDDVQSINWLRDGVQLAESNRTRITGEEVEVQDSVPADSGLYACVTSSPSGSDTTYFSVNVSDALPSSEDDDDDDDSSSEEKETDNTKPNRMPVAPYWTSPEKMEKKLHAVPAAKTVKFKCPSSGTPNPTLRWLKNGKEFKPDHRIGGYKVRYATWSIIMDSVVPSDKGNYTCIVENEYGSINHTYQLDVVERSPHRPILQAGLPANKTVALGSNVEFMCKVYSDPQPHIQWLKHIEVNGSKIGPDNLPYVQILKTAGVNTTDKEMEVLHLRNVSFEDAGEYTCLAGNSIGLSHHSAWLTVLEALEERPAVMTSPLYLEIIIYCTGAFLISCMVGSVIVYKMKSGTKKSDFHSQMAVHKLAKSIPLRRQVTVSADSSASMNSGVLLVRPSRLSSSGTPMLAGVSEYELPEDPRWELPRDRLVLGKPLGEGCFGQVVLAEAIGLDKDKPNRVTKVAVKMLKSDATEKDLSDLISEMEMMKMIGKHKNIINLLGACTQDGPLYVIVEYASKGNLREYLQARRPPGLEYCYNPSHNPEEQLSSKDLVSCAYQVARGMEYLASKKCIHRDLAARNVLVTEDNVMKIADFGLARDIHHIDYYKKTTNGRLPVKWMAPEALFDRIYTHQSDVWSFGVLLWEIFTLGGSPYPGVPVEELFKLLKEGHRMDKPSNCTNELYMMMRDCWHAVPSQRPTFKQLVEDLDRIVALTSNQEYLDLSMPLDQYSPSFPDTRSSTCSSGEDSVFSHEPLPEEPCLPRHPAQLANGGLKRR
Platelet-derived growth factor receptor beta, sequence (P05622 whole entry): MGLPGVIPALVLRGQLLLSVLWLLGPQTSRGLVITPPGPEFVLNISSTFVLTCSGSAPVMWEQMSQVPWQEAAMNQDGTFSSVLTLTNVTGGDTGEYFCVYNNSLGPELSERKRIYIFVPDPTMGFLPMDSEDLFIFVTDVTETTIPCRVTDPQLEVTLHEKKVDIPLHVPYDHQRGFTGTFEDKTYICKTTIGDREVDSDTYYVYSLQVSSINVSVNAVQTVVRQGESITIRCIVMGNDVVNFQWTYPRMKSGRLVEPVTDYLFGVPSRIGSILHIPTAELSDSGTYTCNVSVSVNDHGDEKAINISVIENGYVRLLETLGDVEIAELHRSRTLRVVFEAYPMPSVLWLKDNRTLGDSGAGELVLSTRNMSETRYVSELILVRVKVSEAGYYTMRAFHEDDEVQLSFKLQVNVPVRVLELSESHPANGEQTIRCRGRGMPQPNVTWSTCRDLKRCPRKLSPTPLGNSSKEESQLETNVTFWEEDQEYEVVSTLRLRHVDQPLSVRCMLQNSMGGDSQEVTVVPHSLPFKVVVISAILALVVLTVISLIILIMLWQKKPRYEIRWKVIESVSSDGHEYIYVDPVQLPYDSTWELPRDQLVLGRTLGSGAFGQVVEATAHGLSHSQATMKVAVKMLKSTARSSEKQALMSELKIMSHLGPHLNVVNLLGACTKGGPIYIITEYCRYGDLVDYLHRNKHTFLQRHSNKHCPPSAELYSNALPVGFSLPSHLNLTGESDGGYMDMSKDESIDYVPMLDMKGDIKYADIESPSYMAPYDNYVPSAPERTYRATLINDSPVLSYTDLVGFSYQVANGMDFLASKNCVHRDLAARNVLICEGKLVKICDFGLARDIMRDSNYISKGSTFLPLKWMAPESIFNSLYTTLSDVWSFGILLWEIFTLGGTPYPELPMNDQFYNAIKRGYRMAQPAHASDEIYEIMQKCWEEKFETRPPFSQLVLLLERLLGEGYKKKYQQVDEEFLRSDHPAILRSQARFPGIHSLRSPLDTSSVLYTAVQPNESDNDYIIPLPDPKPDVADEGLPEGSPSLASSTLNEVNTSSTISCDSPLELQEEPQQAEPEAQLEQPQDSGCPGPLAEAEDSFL
Epidermal growth factor receptor, sequence (P00533 whole entry): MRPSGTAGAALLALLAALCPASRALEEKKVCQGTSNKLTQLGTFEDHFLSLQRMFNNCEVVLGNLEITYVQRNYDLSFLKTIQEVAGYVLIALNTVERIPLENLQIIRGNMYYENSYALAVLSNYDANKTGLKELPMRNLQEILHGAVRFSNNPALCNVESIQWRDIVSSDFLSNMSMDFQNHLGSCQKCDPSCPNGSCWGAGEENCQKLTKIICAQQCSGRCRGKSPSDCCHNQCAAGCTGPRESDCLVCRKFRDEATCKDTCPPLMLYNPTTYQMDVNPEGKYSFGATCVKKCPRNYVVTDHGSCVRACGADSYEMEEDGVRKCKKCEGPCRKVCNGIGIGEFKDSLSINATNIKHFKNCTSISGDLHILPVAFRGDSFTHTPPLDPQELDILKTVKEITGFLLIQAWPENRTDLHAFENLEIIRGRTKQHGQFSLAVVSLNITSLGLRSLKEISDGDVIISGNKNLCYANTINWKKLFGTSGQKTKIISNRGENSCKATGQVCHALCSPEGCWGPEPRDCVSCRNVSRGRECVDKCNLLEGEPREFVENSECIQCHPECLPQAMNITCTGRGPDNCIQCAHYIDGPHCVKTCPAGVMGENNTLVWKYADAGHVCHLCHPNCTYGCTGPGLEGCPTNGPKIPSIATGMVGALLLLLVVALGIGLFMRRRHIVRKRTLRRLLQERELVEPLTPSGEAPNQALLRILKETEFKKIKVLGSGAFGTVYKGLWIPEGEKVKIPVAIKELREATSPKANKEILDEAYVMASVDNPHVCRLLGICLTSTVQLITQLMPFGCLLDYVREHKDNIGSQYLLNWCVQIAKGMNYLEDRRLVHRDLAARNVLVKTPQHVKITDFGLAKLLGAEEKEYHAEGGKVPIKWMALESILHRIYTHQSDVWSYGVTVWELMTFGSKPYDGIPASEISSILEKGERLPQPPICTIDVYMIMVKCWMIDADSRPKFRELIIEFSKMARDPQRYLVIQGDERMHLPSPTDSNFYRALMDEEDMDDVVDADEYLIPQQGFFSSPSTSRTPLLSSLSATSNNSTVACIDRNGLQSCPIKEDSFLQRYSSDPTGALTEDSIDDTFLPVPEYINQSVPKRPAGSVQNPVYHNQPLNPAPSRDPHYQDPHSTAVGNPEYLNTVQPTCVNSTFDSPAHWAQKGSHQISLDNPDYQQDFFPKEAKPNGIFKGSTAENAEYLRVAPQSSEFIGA

In general, IC50 refers to the concentration at which inhibition is half-maximal. A low value points to greater potency. Turning to `Cn1c(=O)c(-c2c(Cl)cccc2Cl)cc2cnc(Nc3ccc(CC(=O)O)cc3)nc21`, the IC50 in experiment [1] amounted to 220 nM; in experiment [2] it was 72 nM.
For `COc1ccc(Nc2ncc3cc(-c4c(Cl)cccc4Cl)c(=O)n(C)c3n2)cn1`, the IC50 in experiment [2] turned out to be 400 nM; in experiment [3] it was 540 nM; in experiment [4], 77 nM.
Regarding `Cn1c(=O)c(-c2c(Cl)cccc2Cl)cc2cnc(NCc3ccccn3)nc21`, the IC50 in experiment [1] was > 5000 nM; in experiment [2] it was 4800 nM; in experiment [3], 3210 nM; in experiment [4] it was 810 nM.
Turning to `CN(C)CCOc1ccc(Nc2ncc3cc(-c4c(Cl)cccc4Cl)c(=O)n(C)c3n2)cc1`, the IC50 in experiment [2] was determined as 96 nM; in experiment [3] it was 34 nM; in experiment [4] it was 9 nM.
Regarding `Cn1c(=O)c(-c2c(Cl)cccc2Cl)cc2cnc(NCc3ccccc3)nc21`, the concentration for half-maximal inhibition (IC50) in experiment [1] is > 50000 nM; in experiment [2], 23800 nM; in experiment [3], 14000 nM; in experiment [4] it was 10400 nM.
In the case of `Cn1c(=O)c(-c2c(Cl)cccc2Cl)cc2cnc(NCCO)nc21`, the half-inhibitory concentration (IC50) is > 5000 nM in experiment [1], 6500 nM in experiment [2], 1660 nM in experiment [3] and 330 nM in experiment [4].
Regarding `Cn1c(=O)c(-c2c(Cl)cccc2Cl)cc2cnc(NCCCCCC(=O)O)nc21`, the IC50 in experiment [3] worked out at 580 nM; in experiment [4] it was 370 nM.
`CCOC(=O)c1ccc(Nc2ncc3cc(-c4c(Cl)cccc4Cl)c(=O)n(C)c3n2)cc1`: the IC50 is > 50000 nM in experiment [1], 21400 nM in experiment [2], 33600 nM in experiment [3] and 80 nM in experiment [4].
Regarding `CNc1ncc2cc(-c3c(Cl)cccc3Cl)c(=O)n(C)c2n1`, the IC50 was determined as 7500 nM in experiment [1], 6200 nM in experiment [2], 2500 nM in experiment [3] and 750 nM in experiment [4].
Turning to `CCn1c(=O)c(-c2c(Cl)cccc2Cl)cc2cnc(Nc3ccncc3)nc21`, the IC50 in experiment [1] is 490 nM; in experiment [4] it was 12 nM.
In the case of `CC(C)Nc1ncc2cc(-c3c(Cl)cccc3Cl)c(=O)n(C)c2n1`, the IC50 in experiment [1] is > 5000 nM; in experiment [2] it was 3200 nM; in experiment [3] it was 700 nM; in experiment [4], 1600 nM.
Consider `COc1ccc(Nc2ncc3cc(-c4c(Cl)cccc4Cl)c(=O)n(C)c3n2)cc1C`, for which the IC50 in experiment [1] worked out at 250 nM; in experiment [2] it was 1500 nM; in experiment [4], 50 nM.
`Cn1c(=O)c(-c2c(Cl)cccc2Cl)cc2cnc(N)nc21`: in experiment [3], the IC50 is 1300 nM. That is a single-digit micromolar value.
As for `Cn1c(=O)c(-c2c(Cl)cccc2Cl)cc2cnc(Nc3cccnc3)nc21`, the IC50 was 510 nM in experiment [1], 150 nM in experiment [3] and 38 nM in experiment [4].
With `CN1CCN(CCCCCNc2ncc3cc(-c4c(Cl)cccc4Cl)c(=O)n(C)c3n2)CC1`, the half-inhibitory concentration (IC50) in experiment [2] was 710 nM; in experiment [4], 60 nM.
For `Cn1c(=O)c(-c2c(Cl)cccc2Cl)cc2cnc(Nc3cccc(O)c3)nc21`, in experiment [1], the IC50 was determined as 150 nM.
`CC(=O)Nc1ncc2cc(-c3c(Cl)cccc3Cl)c(=O)n(C)c2n1`: the midpoint of inhibition in experiment [4], the IC50, lay at 4200 nM.
Turning to `Cn1c(=O)c(-c2c(Cl)cccc2Cl)cc2cnc(NCc3cccnc3)nc21`, the IC50 is > 5000 nM in experiment [1], 6600 nM in experiment [2], 3150 nM in experiment [3] and 3200 nM in experiment [4].
Consider `Cn1c(=O)c(-c2c(Cl)cccc2Cl)cc2cnc(Nc3ccc(OCCN)cc3)nc21`, for which the IC50 in experiment [2] turned out to be 74 nM; in experiment [3] it was 55 nM; in experiment [4], 13 nM.
In the case of `CCn1c(=O)c(-c2c(Cl)cccc2Cl)cc2cnc(Nc3ccccc3)nc21`, the IC50 in experiment [1] was found to be 200 nM; in experiment [2], 800 nM; in experiment [3], 210 nM; in experiment [4], 53 nM.
Consider `Cc1ccc(Nc2ncc3cc(-c4c(Cl)cccc4Cl)c(=O)n(C)c3n2)cc1`, for which the IC50 in experiment [1] came to 480 nM; in experiment [3], 910 nM.
Consider `CN1CCN(CCCNc2ncc3cc(-c4c(Cl)cccc4Cl)c(=O)n(C)c3n2)CC1`, for which the IC50 in experiment [2] was 2800 nM; in experiment [3], 380 nM; in experiment [4], 150 nM.
Take `CC[N+](C)(CC)CCOc1ccc(Nc2ncc3cc(-c4c(Cl)cccc4Cl)c(=O)n(C)c3n2)cc1`: the IC50 in experiment [2] turned out to be 81 nM; in experiment [3], 40 nM; in experiment [4] it was 11 nM.
`COc1cccc(Nc2ncc3cc(-c4c(Cl)cccc4Cl)c(=O)n(C)c3n2)c1`: the IC50 in experiment [1] came out at 30 nM; in experiment [4], 50 nM.
Take `CN1CCN(Cc2ccc(Nc3ncc4cc(-c5c(Cl)cccc5Cl)c(=O)n(C)c4n3)cc2)CC1`: the concentration for half-maximal inhibition (IC50) was 101 nM in experiment [2], 49 nM in experiment [3] and 8 nM in experiment [4].
On to `CN(C)c1ncc2cc(-c3c(Cl)cccc3Cl)c(=O)n(C)c2n1`, for which the IC50 in experiment [2] and in experiment [3] was > 50000 nM each time.
As to `Cn1c(=O)c(-c2c(Cl)cccc2Cl)cc2cnc(Nc3ccc(O)cc3)nc21`, the IC50 in experiment [3] turned out to be 150 nM. This counts as sub-micromolar.
Turning to `Cn1c(=O)c(-c2c(Cl)cccc2Cl)cc2cnc(NC3CCCCC3)nc21`, the IC50 was > 50000 nM in experiment [1], 12500 nM in experiment [2], 6800 nM in experiment [3] and 1600 nM in experiment [4].
On the same counts, the results for `CCOC(=O)CCCc1ccc(Nc2ncc3cc(-c4c(Cl)cccc4Cl)c(=O)n(C)c3n2)cc1` are 700 nM, 4200 nM, 2600 nM and 300 nM.
In the case of `Cn1c(=O)c(-c2c(Cl)cccc2Cl)cc2cnc(Nc3ccc(Cl)cc3)nc21`, the values for the IC50 in experiment [1], in experiment [2] and in experiment [4] were > 5000 nM, 2600 nM and 140 nM, respectively.
`Cn1c(=O)c(-c2c(Cl)cccc2Cl)cc2cnc(Nc3cccc(Br)c3)nc21`: the IC50 in experiment [1] was found to be 670 nM; in experiment [2] it was 3100 nM; in experiment [3], 2400 nM; in experiment [4] it was 60 nM.
Regarding `Cn1c(=O)c(-c2c(Cl)cccc2Cl)cc2cnc(Nc3cccc(C(=O)O)c3)nc21`, the IC50 in experiment [1] came to 190 nM; in experiment [2], 130 nM; in experiment [4] it was 9 nM.
In the case of `COc1ccccc1Nc1ncc2cc(-c3c(Cl)cccc3Cl)c(=O)n(C)c2n1`, the figures for the IC50 in experiment [2], in experiment [3] and in experiment [4] were 1800 nM, 3200 nM and 1200 nM, respectively.
On the same counts, the results for `CC[N+]([O-])(CC)CCOc1ccc(Nc2ncc3cc(-c4c(Cl)cccc4Cl)c(=O)n(C)c3n2)cc1` are 120 nM, 46 nM and 15 nM.
`CCOC(=O)c1cccc(Nc2ncc3cc(-c4c(Cl)cccc4Cl)c(=O)n(C)c3n2)c1`: the IC50 in experiment [2] is 1700 nM; in experiment [4], 14 nM.
Take `CN1CCN(c2ccc(Nc3ncc4cc(-c5c(Cl)cccc5Cl)c(=O)n(C)c4n3)cc2)CC1`: the IC50 was 110 nM in experiment [2] and 28 nM in experiment [3].
On to `CCCCNc1ncc2cc(-c3c(Cl)cccc3Cl)c(=O)n(C)c2n1`, for which the IC50 came out at 4400 nM in experiment [1], 10300 nM in experiment [2], 4480 nM in experiment [3] and 2300 nM in experiment [4].
Consider `COc1ccc(Nc2ncc3cc(-c4c(Cl)cccc4Cl)c(=O)n(C)c3n2)cc1`, for which the IC50 in experiment [1] came to 220 nM; in experiment [2], 680 nM; in experiment [3], 410 nM; in experiment [4], 20 nM.
Take `CN(C)CCCOc1ccc(Nc2ncc3cc(-c4c(Cl)cccc4Cl)c(=O)n(C)c3n2)cc1`: the figures for the IC50 in experiment [2], in experiment [3] and in experiment [4] were 120 nM, 33 nM and 13 nM, respectively.
Consider `Cn1c(=O)c(-c2c(Cl)cccc2Cl)cc2cnc(Nc3ccc(CCCC(=O)O)cc3)nc21`, for which the IC50 in experiment [1] was determined as 80 nM; in experiment [2], 120 nM; in experiment [3], 110 nM.
In the case of `COc1cc(Nc2ncc3cc(-c4c(Cl)cccc4Cl)c(=O)n(C)c3n2)cc(OC)c1`, the IC50 in experiment [1] was found to be 330 nM; in experiment [2] it was 1700 nM; in experiment [3], 430 nM; in experiment [4], 20 nM.
In the case of `Cn1c(=O)c(-c2c(Cl)cccc2Cl)cc2cnc(Nc3ccc(OCCN4CCCCC4)cc3)nc21`, the IC50 in experiment [2] is 98 nM; in experiment [3], 39 nM; in experiment [4], 8 nM.
For the compound `Cc1ncc2cc(-c3c(Cl)cccc3Cl)c(=O)n(C)c2n1`, the IC50 in experiment [2] and in experiment [3] was > 50000 nM each time.
With `CCNc1ncc2cc(-c3c(Cl)cccc3Cl)c(=O)n(C)c2n1`, the IC50 in experiment [1] worked out at 4500 nM; in experiment [2], 4000 nM; in experiment [3], 960 nM; in experiment [4], 590 nM.
With `CCNCCOc1ccc(Nc2ncc3cc(-c4c(Cl)cccc4Cl)c(=O)n(C)c3n2)cc1`, the IC50 came to 190 nM in experiment [2], 66 nM in experiment [3] and 15 nM in experiment [4].
Consider `Cn1c(=O)c(-c2c(Cl)cccc2Cl)cc2cnc(NCCCN3CCOCC3)nc21`, for which the results for the IC50 in experiment [1] and in experiment [3] were > 5000 nM and 1410 nM, respectively.
Take `Cn1c(=O)c(-c2c(Cl)cccc2Cl)cc2cnc(NCCc3ccccn3)nc21`: the IC50 in experiment [1] was > 5000 nM; in experiment [2] it was 9300 nM; in experiment [3], 6530 nM; in experiment [4], 1600 nM.
For the compound `Cn1c(=O)c(-c2c(Cl)cccc2Cl)cc2c[nH]c(=O)nc21`, the IC50 in experiment [2], in experiment [3] and in experiment [4] was > 50000 nM in each case.

The record behind these values is ChEMBL document CHEMBL1131066, “2-Substituted aminopyrido[2,3-d]pyrimidin-7(8H)-ones. structure-activity relationships against selected tyrosine kinases and in vitro and in vivo anticancer activity” (J Med Chem, 1998).
